“And” between values parts separate entries of the source, which are not always exact repeats. Equal entries are not always repeated.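 Test compounds were applied to cells in 96-well plates for 48 hours at 5 doses. GI50 marks 50% less growth.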 The source made the active and inactive calls. Rule as the data show it: active = GI50 up to about 1.1 µM and inactive = higher.
Tests used:
Test in all cases: NCI-60 cell line screen, 48 h
LOX IMVI = test system: LOX IMVI
HOP-62 = test system: HOP-62
KM12 = test system: KM12
U-251 = test system: U-251
NCI-H23 = test system: NCI-H23
EKVX = test system: EKVX
OVCAR-4 = test system: OVCAR-4
SNB-19 = test system: SNB-19
K562 = test system: K562
DMS-114 = test system: DMS-114
HOP-92 = test system: HOP-92
SF-295 = test system: SF-295
M19-MEL = test system: M19-MEL
786-0 = test system: 786-0
HCC 2998 = test system: HCC 2998
DU-145 = test system: DU-145
SR = test system: SR
MDA-MB-231 = test system: MDA-MB-231
PC-3 = test system: PC-3
BT-549 = test system: BT-549

SMILES | GI50 (LOX IMVI) | GI50 (HOP-62) | GI50 (KM12) | GI50 (U-251) | GI50 (NCI-H23) | GI50 (EKVX) | GI50 (OVCAR-4) | GI50 (SNB-19) | GI50 (K562) | GI50 (DMS-114) | GI50 (HOP-92) | GI50 (SF-295) | GI50 (M19-MEL) | GI50 (786-0) | GI50 (HCC 2998) | GI50 (DU-145) | GI50 (SR) | GI50 (MDA-MB-231) | GI50 (PC-3) | GI50 (BT-549)
O=C1C=C2SC3C[C@@]24CC1(O)[N+]1=c2c4c(c(O)c4c2=C(C=N4)CC1)N3 | 0.546 µM (active) | 1.82 µM (inactive) | 1.53 µM (inactive) | 1.75 µM (inactive) | 1.3 µM (inactive) | 4.13 µM (inactive) | 1.26 µM (inactive) | 1.74 µM (inactive) | 0.64 µM (active) | 0.219 µM (active) | 1.35 µM (inactive) | 1.58 µM (inactive) | 0.285 µM (active) | – | – | – | – | – | – | –
O/N=C1/CCCC/C1=C/C=C/c1ccccc1 | 17.2 µM (inactive) | – | 20.1 µM (inactive) | 16.7 µM (inactive) | 22.8 µM (inactive) | – | 30.3 µM (inactive) | 48 µM (inactive) | 18.4 µM (inactive) | – | 15.5 µM (inactive) | 21.8 µM (inactive) | 19.7 µM (inactive) | 23.2 µM (inactive) | 22.1 µM (inactive) | 22.1 µM (inactive) | 5.71 µM (inactive) | – | – | –
CC(C)(C)c1cc(C2c3cc4c(cc3OC(O)(CO)C2C(=O)O)OCO4)cc(C(C)(C)C)c1O.CC(C)(C)c1cc(C2c3cc4c(cc3OC3(O)COC(=O)C23)OCO4)cc(C(C)(C)C)c1O (configuration not stated) | 12.2 µM (inactive) | 32.2 µM (inactive) | – | 14.5 µM (inactive) | 9.55 µM (inactive) | 22.5 µM (inactive) | 11.7 µM (inactive) | 12.9 µM (inactive) | 7.67 µM (inactive) | 8.34 µM (inactive) | 9.82 µM (inactive) | 15.7 µM (inactive) | 13.8 µM (inactive) | 16.6 µM (inactive) | – | – | – | – | – | –
OC(CC1SCCCS1)c1ccccc1 (configuration not stated) | – | > 100 µM (inactive) | > 100 µM (inactive) | > 100 µM (inactive) | > 100 µM (inactive) | > 100 µM (inactive) | > 100 µM (inactive) | > 100 µM (inactive) | > 100 µM (inactive) | > 100 µM (inactive) | – | > 100 µM (inactive) | > 100 µM (inactive) | > 100 µM (inactive) | > 100 µM (inactive) | – | – | – | – | –
CC1=CC2=C(C=O)C(=O)[C@](C)(O)[C@@H](O)C2=CO1 | 27.7 µM (inactive) | 24.3 µM (inactive) | 33.3 µM (inactive) | 25.2 µM (inactive) | 37.2 µM (inactive) | 46.9 µM (inactive) | 39.1 µM (inactive) | 0.982 µM (active) | 27.9 µM (inactive) | – | > 65.5 µM (inactive) | 35.7 µM (inactive) | 22.4 µM (inactive) | – | 19.1 µM (inactive) | – | – | – | – | –
O=C(Nc1ccc([N+](=O)[O-])cc1C(=O)O)c1ccc([N+](=O)[O-])cc1 | 24.2 µM (inactive) | > 100 µM (inactive) | 24.8 µM (inactive) | 37.4 µM (inactive) | – | > 100 µM (inactive) | 27.4 µM (inactive) | 36.6 µM (inactive) | 15.1 µM (inactive) | 5.97 µM (inactive) | 10.8 µM (inactive) | > 100 µM (inactive) | 61 µM (inactive) | 31.6 µM (inactive) | 16 µM (inactive) | – | – | – | – | –
CC1(CO)C(O)CCC2(C)C1C(O)CC1CC3CC12CCC3(O)CO (configuration not stated) | > 225 µM (inactive) | > 225 µM (inactive) | > 225 µM (inactive) | > 225 µM (inactive) | > 225 µM (inactive) | > 205 µM (inactive) | > 225 µM (inactive) | > 225 µM (inactive) | > 225 µM (inactive) | > 225 µM (inactive) | > 225 µM (inactive) | 91.2 µM (inactive) | > 153 µM (inactive) | – | > 225 µM (inactive) | – | – | – | – | –
Cc1oc2c(C)c3oc(=O)cc(C)c3cc2c1CN | 16.2 µM (inactive) | 38.8 µM (inactive) | 49.5 µM (inactive) | 23 µM (inactive) | 45.8 µM (inactive) | 42.6 µM (inactive) | 40.6 µM (inactive) | 41.5 µM (inactive) | 37.6 µM (inactive) | 41.2 µM (inactive) | – | 38 µM (inactive) | 31 µM (inactive) | 39.9 µM (inactive) | 28.1 µM (inactive) | – | – | – | – | –
N#C/C(=C\c1ccc(O)c(O)c1)C(N)=O | – | 51.2 µM (inactive) | 33.1 µM (inactive) | 33.9 µM (inactive) | 34 µM (inactive) | 53 µM (inactive) | 67.1 µM (inactive) | 38.5 µM (inactive) | 34.6 µM (inactive) | 22.7 µM (inactive) | 49.9 µM (inactive) | 39.1 µM (inactive) | 78.7 µM (inactive) | 20.6 µM (inactive) | 53.1 µM (inactive) | – | – | – | – | –
Cn1c2c(c3ccccc31)CCN(CCCN1CCN(c3ccccc3)CC1)C2=O | 22.9 µM (inactive) | – | – | 16.6 µM (inactive) | 20.5 µM (inactive) | 26.7 µM (inactive) | – | – | 17.3 µM (inactive) | 16.9 µM (inactive) | 15.7 µM (inactive) | 23.1 µM (inactive) | 19.5 µM (inactive) | 19.5 µM (inactive) | – | – | – | – | – | –
O=[PH](O)c1cc2ccccc2c2ccccc12 | > 100 µM (inactive) | > 100 µM (inactive) | > 100 µM (inactive) | > 100 µM (inactive) | > 100 µM (inactive) | > 100 µM (inactive) | > 100 µM (inactive) | > 100 µM (inactive) | > 100 µM (inactive) | > 100 µM (inactive) | – | > 100 µM (inactive) | > 100 µM (inactive) | > 100 µM (inactive) | > 100 µM (inactive) | – | – | – | – | –
COc1cc(-c2ccccc2)c(OC)cc1CCl | – | > 100 µM (inactive) | > 100 µM (inactive) | > 100 µM (inactive) | > 100 µM (inactive) | > 100 µM (inactive) | > 100 µM (inactive) | > 100 µM (inactive) | > 100 µM (inactive) | > 100 µM (inactive) | – | > 100 µM (inactive) | > 100 µM (inactive) | > 100 µM (inactive) | > 100 µM (inactive) | – | – | – | – | –
CC#CC#C/C=C1\C=CC2(OC=CC2OC(C)=O)O1 (configuration not stated) | 30.1 µM (inactive) and 16.1 µM (inactive) | > 100 µM (inactive) | 21.7 µM (inactive) and 21.8 µM (inactive) | 19.5 µM (inactive) and 18.5 µM (inactive) | 15 µM (inactive) and 11 µM (inactive) | 29.9 µM (inactive) and > 40 µM (inactive) | – | > 100 µM (inactive) and > 82.2 µM (inactive) | 25.6 µM (inactive) and 19 µM (inactive) | 18.2 µM (inactive) | 20.6 µM (inactive) and 22.3 µM (inactive) | 47.8 µM (inactive) and 34.3 µM (inactive) | – | – | 22 µM (inactive) and 28 µM (inactive) | 20.4 µM (inactive) | 17.6 µM (inactive) and 15.3 µM (inactive) | 17.8 µM (inactive) | 28.2 µM (inactive) | 34.7 µM (inactive)
O=C(Oc1ccccn1)c1cc2cc(CCl)ccc2oc1=O | 33.3 µM (inactive) | 23.7 µM (inactive) | 66.8 µM (inactive) | 18.5 µM (inactive) | 21.6 µM (inactive) | 36.8 µM (inactive) | 23 µM (inactive) | 27 µM (inactive) | 32.7 µM (inactive) | – | 20.7 µM (inactive) | 68.1 µM (inactive) | – | 19.5 µM (inactive) | 58.9 µM (inactive) | 42.8 µM (inactive) | 30.4 µM (inactive) | 19.7 µM (inactive) | 18.5 µM (inactive) | 22.3 µM (inactive)
C=C1C2CC(OC(C)=O)C3(C)C(c4ccoc4)OC(=O)[C@@H](O)[C@]13OC1C[C@H](OC(C)=O)C(C)(C)[C@H](CC(=O)OC)[C@]12C (some centres not stated) | > 100 µM (inactive) | – | > 100 µM (inactive) | > 100 µM (inactive) | > 100 µM (inactive) | > 100 µM (inactive) | 93.5 µM (inactive) | > 100 µM (inactive) | > 100 µM (inactive) | > 100 µM (inactive) | 30.3 µM (inactive) | > 100 µM (inactive) | > 100 µM (inactive) | > 100 µM (inactive) | > 100 µM (inactive) | – | – | – | – | –
COc1ccc2oc(S(=O)(=O)N3CC(CCl)c4ccc([N+](=O)[O-])cc43)cc2c1 (configuration not stated) | 0.155 µM (active) | 0.0381 µM (active) | 0.0465 µM (active) | 0.0955 µM (active) | 0.36 µM (active) | 0.173 µM (active) | 6.28 µM (inactive) | 0.233 µM (active) | 0.0366 µM (active) | – | 0.533 µM (active) | 0.0374 µM (active) | – | 0.0959 µM (active) | 0.256 µM (active) | 0.0883 µM (active) | 0.0521 µM (active) | 0.29 µM (active) | 0.116 µM (active) | 0.351 µM (active)
COc1ccc(-n2cnc3c(NC(Cc4ccccc4)C(=O)O)ncnc32)cc1 (configuration not stated) | > 100 µM (inactive) | > 100 µM (inactive) | > 100 µM (inactive) | > 100 µM (inactive) | > 100 µM (inactive) | > 100 µM (inactive) | > 100 µM (inactive) | > 10 µM (inactive) | > 100 µM (inactive) | – | > 100 µM (inactive) | > 100 µM (inactive) | – | > 100 µM (inactive) | > 100 µM (inactive) | > 100 µM (inactive) | > 100 µM (inactive) | > 100 µM (inactive) | > 100 µM (inactive) | > 100 µM (inactive)
COC(=O)/C(=C\c1ccco1)P(=O)(OC)OC | 19.9 µM (inactive) | 25.4 µM (inactive) | > 100 µM (inactive) | 41 µM (inactive) | 30.5 µM (inactive) | 43.3 µM (inactive) | 17.8 µM (inactive) | 65.2 µM (inactive) | > 100 µM (inactive) | – | 25.2 µM (inactive) | 20 µM (inactive) | – | 47.4 µM (inactive) | > 100 µM (inactive) | 80.9 µM (inactive) | 52.8 µM (inactive) | 38.8 µM (inactive) | 73.5 µM (inactive) | 26.6 µM (inactive)
